Reference: article PMC10121968, “Fosgonimeton, a Novel Positive Modulator of the HGF/MET System, Promotes Neurotrophic and Procognitive Effects in Models of Dementia” (Neurotherapeutics, 2022)
Non-standard residues stand in square brackets, D forms with d. Residues, ends and D or L forms follow the SMILES beside them. *: point of attachment. Hexanoyl = CCCCCC(=O)*; Ahx = NCCCCCC(=O)O

How the values were obtained:
[1] = Plasma PK in rats after SC injection; format: in vivo, rat
Description: Four male rats were treated with 10 mg/kg fosgo-AM in DMSO via SC injection. Blood was serially collected at 0.08, 0.25, 0.5, 1, 2, and 4 h after dosing. Plasma was obtained by centrifugation with 2% disodium ethylenediaminetetraacetic acid (EDTA) as an anticoagulant. Plasma samples were precipitated with acetonitrile containing internal standard, and the concentration of fosgo-AM was determined by LC/MS/MS.
This study was conducted as described in the “Fosgo-AM PK in Rats” section with the following changes: animals were given 12 mg/kg fosgonimeton in saline with 0.1% glycine via SC injection, and a dose-linear correction was applied to normalize the dose to 10 mg/kg for comparison with the fosgo-AM study. Sample concentrations of both fosgonimeton and fosgo-AM were determined.

[2] = Fosgonimeton CNS distribution in rats; format: in vivo, rat; conditions: 12 mg/kg fosgonimeton SC
Description: Three male Sprague Dawley rats per time point were given 12 mg/kg fosgonimeton via SC injection. At 0.16, 0.5, and 1 h after dosing, animals were humanely killed and perfused with chilled saline. Brains were collected and dissected into the following brain regions: whole brain, striatum, olfactory bulb, hippocampus, cerebellum, cerebral cortex, and brainstem. Brain regions were homogenized and the exposures of fosgonimeton and fosgo-AM were determined by LC/MS/MS.

[3] = Fosgonimeton CNS distribution in mice; format: in vivo, mouse; conditions: 5 mg/kg fosgonimeton IV, whole brain, 0.16 h
Description: Four C57BL/6 mice—2 males and 2 females—were treated with 5 mg/kg fosgonimeton via intravenous (IV) injection. At 0.16 h after dosing, animals were humanely killed and perfused with normal saline. The whole brain was collected and homogenized before determination of fosgonimeton and fosgo-AM tissue penetration by LC/MS/MS.

TNF-α = TNF-α release in LPS-challenged THP-1 macrophages (ELISA); format: cell-based, human; conditions: 1 µM, 20 min pretreatment, LPS 50 ng/mL 24 h, vs LPS + vehicle
Description: To determine the effect of fosgo-AM on LPS-induced cytokine release, we sought to determine the levels of interleukin-1β (IL-1β), interleukin-6 (IL-6), and tumor necrosis factor-α (TNF-α) in LPS-challenged THP-1–differentiated macrophages in the presence and absence of fosgo-AM. THP-1 monocytes were grown at 37 °C, 5% CO2 in Roswell Park Memorial Institute (RPMI) medium + 10% FBS until approximately 80% confluent. Cells were seeded in polystyrene-treated 96-well cell culture plates at approximately 50,000 cells/well in 100-µL complete media. 100 µL Phorbol myristate acetate was then added to each well for a final concentration of 100 ng/mL. The plate was then incubated for 3 days at 37 °C, 5% CO2 to prime the monocytes into macrophages. […] For cytokine quantification, cell culture supernatant was assayed by HTRF kits to assess levels of IL-1β (Human IL-1β kit, #62HIL1BPEG, Cisbio, Codolet, France) and IL-6 (Human IL-6 kit, 62HIL06PET, Cisbio, Codolet, France), and by ELISA (Human TNF-α ELISA kit, KHC3011, ThermoFisher, Waltham, Massachusetts) to determine the levels of TNF-α. […] Fluorescence emission at 2 different wavelengths (665 nm and 620 nm) were measured on an Envision plate reader (PerkinElmer, Waltham, Massachusetts), and HTRF ratio of the acceptor and donor emission signals for each well was calculated as follows: HTRF ratio = (665 nm/620 nm) × 10,000. […]

Oral bioavailability = conditions: in vivo

CCCCCC(=O)N[C@@H](Cc1ccc(O)cc1)C(=O)N[C@H](C(=O)NCCCCCC(N)=O)[C@@H](C)CC [fosgo-AM] (Hexanoyl-Tyr-Ile-[Ahx]-NH2)
fosgo-AM maximum concentration (Cmax) in plasma ([1]; after SC delivery of fosgonimeton (12 mg/kg, normalized to 10 mg/kg), after metabolism): 1198 ng/mL | fosgo-AM maximum concentration (Cmax) in plasma ([1]; after direct SC delivery of fosgo-AM 10 mg/kg): 329 ng/mL | time to maximum concentration (Tmax) in brain regions ([2]; all regions): 10 min | Cmax, ng/g ± SEM ([2]; brainstem): 58.3 ± 11.3 ng/g | Tmax ([2]; brainstem): 9.6 min | Cmax, ng/g ± SEM ([2]; cerebellum): 23.8 ± 4.1 ng/g | Tmax ([2]; cerebellum): 9.6 min | Cmax, ng/g ± SEM ([2]; cerebral cortex): 36.5 ± 12.0 ng/g | Tmax ([2]; cerebral cortex): 9.6 min | Cmax, ng/g ± SEM ([2]; hippocampus): 49.8 ± 30.5 ng/g | Tmax ([2]; hippocampus): 9.6 min | Cmax, ng/g ± SEM ([2]; olfactory bulb): 43.7 ± 7.3 ng/g | Tmax ([2]; olfactory bulb): 9.6 min | Cmax, ng/g ± SEM ([2]; striatum): 24.1 ± 12.8 ng/g | Tmax ([2]; striatum): 9.6 min | Cmax, ng/g ± SEM ([2]; whole brain): 31.9 ± 23.8 ng/g | Tmax ([2]; whole brain): 9.6 min | Cmax, ng/g ± SEM [3]: 7.9 ± 2.3 ng/g | TNF-α release (TNF-α): significant decrease | oral bioavailability (Oral bioavailability): poor oral bioavailability
